Assay results from US8834841B2, “Imaging agents” (priority 2005, dated 2014).

Columns and labels:
[1] = tested on: SKOV3 ovarian carcinoma; test: in vitro amino acid uptake, SKOV3 cells; format: cell-based, human
From the text: (§1) The inventive compounds have been evaluated in vitro for tumor binding specificity (i.e. uptake cells) using a variety of tumor cell lines available in the art, along with reference compounds such as Me-AIB and BCH. Detailed description of these assays can be found in Martarello et al. (2002) Journal of Medicinal Chemistry, 45:2250-2259 and McConathy et al. (2003) Nuclear Medicine and Biology, 30:477-490. These, so called “amino acid uptake studies” are typically carried out with radiolabeled compounds in at least five phenotypically different human tumor cell lines (e.g. A549 lung carcinoma, MB468 breast carcinoma, DU145 prostate carcinoma, SKOV3 ovarian carcinoma, and U87 glial blastoma). These tumor cell lines can be grown either in vitro or in vivo with severe combined immunodeficiency (SCID) mice as a host. The fore-mentioned tumor cell lines are available at the Winship Cancer Institute of Emory University.
(§2) For the in vitro amino acid uptake studies, all cells can be grown to monolayer confluency in T-175 culture flasks [Corning, Corning, N.Y.] (approx. 1×10^8 cells/flask) in Dulbecco's Modified Eagle's Medium (DMEM) [Sigma, St. Louis, Mo.] in a humidified incubator (37° C., 5% CO2/95% air). Media are supplemented with 10% fetal calf serum [Hyclone, Logan, Utah], and antibiotics (10,000 U/ml penicillin and 10 mg/ml streptomycin) (Sigma, St. Louis, Mo.). For tissue culture passage, monolayer cells are detached by gentle trypsinization, resuspended in complete media, and split 1:10 into new T-flasks. […]
(§3) In the in vitro studies the uptake rate of each amino acid compound is measured in each tumor line, as well as the dominant transport mechanisms of each tumor cell line. After trypsinization, cells are resuspended in serum-free media, then counted on a hemocytometer, with viability assessed through Trypan blue staining. […] The vials are placed in a Cobra-II gamma counter (Packard, Meriden, Conn.), with the activity per cell number determined. […] Saline washes are performed as described above, and the filtered cells radioactivity determined on the gamma counter. […]

[2] = tested on: MB468 breast carcinoma; test: in vitro amino acid uptake, MDA MB 468 cells; format: cell-based, human
From the text: as §1, §2, §3

NC1(C(=O)O)CCC1[18F] [Anti-R,S 2-[^18F]FACBC, (R,S) anti-1-amino-2-[^18F]fluorocyclobutyl-1-carboxylic acid]
% Dose Uptake/0.5e6 Cells ([1]; SKOV3, No inhibitor): 2.16 +/− 0.14 % Dose Uptake/0.5e6 Cells | % Dose Uptake/0.5e6 Cells ([1]; SKOV3, inhibitor BCH (10 mM)): 1.74 +/− 0.01 % Dose Uptake/0.5e6 Cells | % Dose Uptake/0.5e6 Cells ([1]; SKOV3, inhibitor MeAlB (10 mM)): 0.75 +/− 0.01 % Dose Uptake/0.5e6 Cells | % Dose Uptake/0.5e6 Cells ([2]; MDA MB 468, No inhibitor): 7.37 +/− 0.21 % Dose Uptake/0.5e6 Cells | % Dose Uptake/0.5e6 Cells ([2]; MDA MB 468, inhibitor BCH (10 mM)): 1.67 +/− 0.36 % Dose Uptake/0.5e6 Cells | % Dose Uptake/0.5e6 Cells ([2]; MDA MB 468, inhibitor MeAlB (10 mM)): 3.02 +/− 0.55 % Dose Uptake/0.5e6 Cells
